Results reported in patent US11517019B2, “Microbicidal system” (priority 2020, dated 2022).
“Also recorded” adds a separate entry of the source. Where two headings read alike, the source gives them in different places.

What was measured:
[1] = system: gram-positive and gram-negative bacteria; settings: cited from earlier work
[2] = Dissolution of CX powder in 140° F. municipal water
Lp1 = assay type: cell-based, Legionella pneumophila; settings: ~9×10^6 CFU/mL
[3] = ambient temperature; third-party reports; cited from earlier work
[4] = 50 mg CX powder in 1 liter 140° F. (60° C.) municipal water

SMILES: [H]/N=C(\N/C(=N/[H])NCCCCCCNC(=N)NC(=N)Nc1ccc(Cl)cc1)Nc1ccc(Cl)cc1 [CX, N,N″″1,6-Hexanediylbis[N-(4-chlorophenyl) (imidodicarbonimidic diamide)]]
- time of uptake into bacterial cells ([1]; aqueously dissolved form): ≤ 20 s
- persistence of activity ([1]; bound to proteins on skin, mucosa, mouth tissue and teeth): ≥ 48 h
- time to kill virtually all gram-positive and gram-negative bacteria ([1]; in vitro): ≤ 30 s
- saturation level of CX approached [2, 4]: ~1 mg/L
- time to approach saturation level [2, 4]: ≤ 10 s
- portion of the powder dissolved ([2]; 50 mg in 1 liter 140° F. water, up to 20 minutes of exposure): under 2 weight percent
- chloroaniline (CA) isomers detectable in the water ([2]; CX in 140° F. water): no isomer of CA was detectable; also recorded: No chloroani line impurities were detectable
- cell count reduction (Lp1; 4.5 g solid CX in 800 mL, first 30 seconds): ~0.3 log
- cell count reduction (Lp1; 12 g solid CX in 800 mL, 2-minute reaction period): ~4.8 log
- solubility in water [3]: ca. 80 mg/100 mL
